Laboratory results taken from patent US20100087486A1, “METHODS FOR USING TGF-B RECEPTOR INHIBITORS OR ACTIVIN-LIKE KINASE (ALK) 5 INHIBITORS A-83-01 AND SB-431542 TO TREAT EYE DISEASE AND WOUND HEALING CONDITIONS” (priority 2008, published 2010).
Read-outs that look alike come from different tables or passages of the source.

Legend:
[1] = test system: TGF-β2 signaling pathway; experiment: Western blotting for α-SMA and fibronectin in TGF-β2-treated fibroblasts; format: cell-based, rabbit; settings: incubated 48 to 72 hours; for band intensity for fibronectin and α-SMA compared with samples not treated with the inhibitors: more pronounced with higher concentration; for fibronectin and α-SMA protein expression induced by TGF-B2: rabbit subconjunctival fibroblasts, 2 ng/ml TGF-β2
Protocol: (§1) Sample fibroblasts were obtained from New Zealand white rabbit eyes. The fibroblasts were derived from the subconjunctival tissues isolated from the eyes of the subjects. The third to fifth passages of cells were maintained in 25 cm^2 flasks using 3 ml of medium composed of Eagle's minimal essential medium, 10% fetal bovine serum, 5% calf serum, essential and nonessential aminoacids, and antibiotics. When the cells reached confluence, they were trypsinized and passaged.
(§2) The fibroblast cultures in 6-well plates were pre-treated with 2 ml of medium including ALK-5 inhibitors at various concentrations, 0.03, 0.1, […], 1.0, 3.0, and 10.0 μM, for one hour, and were additionally treated with
(§3) 2 ng/ml of TGF-β2 (R&D Systems, Minneapolis, Minn.) for up to 72 hours.
To test for fibronectin and α-SMA protein expression after the treatment with the respective inhibitors, rabbit subconjunctival fibroblasts, as prepared in samples 1-16, were incubated for 48 to 72 hours. […] Band intensity for both proteins was reduced in A-83-01 and SB-431542 treated samples compared with the bands of those samples not treated with the inhibitors. The reduction in protein levels is more pronounced with a higher concentration of the inhibitors. The blots were also probed for β-actin to control for equal protein loading.
Proteins in the cell lysates (20 μg/lane) were resolved on a 10% sodium dodecyl sulfate (SDS)-polyacrylamide gel. The proteins were transferred to nitrocellulose. After blocking with 1% bovine serum albumin, the membranes were probed with monoclonal mouse anti-α-SMA (1:9,000) followed by HRP-conjugated goat anti-mouse IgG (1:150,000; Jackson), or monoclonal mouse anti-fibronectin (1:1,000) followed by HRP-conjugated goat anti-mouse IgG (1:10,000). Signals were detected by enhanced chemiluminescense.

[2] = test system: cultured rabbit subconjunctival fibroblasts; experiment: TGF-β2 activity related to wound healing in cultured fibroblasts (overall conclusion); format: cell-based; settings: for cell toxicity: cell cultures prepared with either inhibitor; for TGF-β2 activity related to wound healing: cultured rabbit subconjunctival fibroblasts
Protocol: as §1, §2, §3
Thus, these inhibitors may be used as ocular anti-scarring agents, especially for glaucoma filtration surgery.

[3] = test system: rabbit fibroblasts; experiment: Fibroblast morphology by phase contrast microscopy; settings: 5 ng/ml TGF-β2; for TGF-β2-induced morphologic change (myofibroblast-like appearance): sample 6 (A-83-01 3.0 μM), sample 14 (SB-431542 10.0 μM)
Protocol: In another example, rabbit fibroblasts were prepared as in samples 6, 14, 15, and 16 except that 5 ng/ml of TGF-β2 was added to the samples instead of 2 ng/ml.

[4] = test system: TGF-β2-induced proteins; experiment: Immunocytofluorescence microscopy for CTGF, fibronectin and α-SMA; settings: for staining intensity of TGF-β2-induced proteins (CTGF, α-SMA, fibronectin): samples 5-6 (A-83-01 1.0, 3.0 μM) and 13-14 (SB-431542 3.0, 10.0 μM), 2 ng/ml TGF-β2, 72 hours
Protocol: (§4) In another example, subconjunctival fibroblasts were cultured on 8-well chamber slides. The samples were prepared as in samples 5-6 and 13-16 and incubated for 72 hours. After inhibitor treatment, the fibroblast cultures were fixed with 4% paraformaldehyde or with ice-cold methanol for Alexa Fluor or FITC staining, respectively. After permeabilization, the cells cultures were incubated with polyclonal goat anti-CTGF (1:50, Santa Cruz) followed by Alexa Fluor donkey anti-goat IgG (10 μg/mL, Invitrogen), monoclonal mouse anti-fibronectin (10 μg/mL, Invitrogen) or monoclonal mouse anti-α-SMA (1:400, Sigma) followed by FITC goat anti-mouse IgG (1:100, Jackson ImmunoResearch). The cell cultures were mounted with aqueous mounting media with DAPI and viewed by fluoresence microscopy.
Nuclei were stained with DAPI (blue).

[5] = test system: TGF-β2-induced proteins
Protocol: as §4
Nuclei were stained with DAPI (blue).

## Cc1cccc(-c2nn(C(=S)Nc3ccccc3)cc2-c2ccnc3ccccc23)n1 [A-83-01]
[1]
  band intensity for fibronectin and α-SMA compared with samples not treated with the inhibitors: reduced
  fibronectin and α-SMA protein expression induced by TGF-B2: effectively inhibited
[2]
  cell toxicity: No obvious cell toxicity
  TGF-β2 activity related to wound healing: effectively block
[3]; sample 6 (3.0 μM), sample 14 (10.0 μM)
  cell death: No obvious cell death
[3]
  TGF-β2-induced morphologic change (myofibroblast-like appearance): seemed to be averted
[4]
  staining intensity of TGF-β2-induced proteins (CTGF, α-SMA, fibronectin): greatly reduced
[4]; samples 5-6 and 13-14, 72 hours
  cell death: No obvious cell death

## NC(=O)c1ccc(-c2nc(-c3ccc4c(c3)OCO4)c(-c3ccccn3)[nH]2)cc1 [SB-431542]
[1]
  band intensity for fibronectin and α-SMA compared with samples not treated with the inhibitors: reduced
  fibronectin and α-SMA protein expression induced by TGF-B2: effectively inhibited
[2]
  cell toxicity: No obvious cell toxicity
  TGF-β2 activity related to wound healing: effectively block
[5]
  cell death: No obvious cell death
[3]
  TGF-β2-induced morphologic change (myofibroblast-like appearance): seemed to be averted
[4]
  staining intensity of TGF-β2-induced proteins (CTGF, α-SMA, fibronectin): greatly reduced
